In data set [1] the target is 5-hydroxytryptamine receptor 2B (Homo sapiens, UniProt P41595). The experiment in a line: Inhibition of human 5HT2B.
In data set [2] the target is Muscarinic acetylcholine receptor M1 (Homo sapiens, UniProt P11229). As to the kind of experiment: Inhibition of M1 receptor.
Data set [3] deals with 5-hydroxytryptamine receptor 2C (Homo sapiens, UniProt P28335). As to the kind of experiment: Inhibition of human 5HT2C.
The target in data set [4] is Sodium-dependent noradrenaline transporter (Homo sapiens, UniProt P23975). The experiment in a line: Inhibition of NA transporter.
The nature of data set [5]: Ratio of drug uptake in brain to plasma in rat at 5 mg/kg, po. The format is ADME, organism-based. The arrangement: dose 5 mg/kg, route oral. The note with it: read-out: BPR.
The nature of data set [6]: Aqueous solubility at pH 7.4. In kind it is physicochemical. The note with it: buffer.
A short description of data set [7]: Oral bioavailability in rat at 5 mg/kg at 24 hrs. In kind it is ADME, organism-based. The note with it: in vivo.
Data set [8] deals with Rattus norvegicus. The experiment in a line: Volume of distribution in rat at 1 mg/kg, iv. The format is ADME, organism-based. The arrangement: dose 1 mg/kg, route intravenous. Particulars: in vivo.
The target in data set [9] is Cytochrome P450 2D6 (Homo sapiens, UniProt P10635). The experiment in a line: Inhibition of CYP 2D6. In kind it is ADME.
For data set [10], the target named is T1, 5-hydroxytryptamine receptor 6 (Homo sapiens, UniProt P50406). The experiment in a line: Displacement of [3H]LSD from human recombinant 5HT6 receptor. (Loss of bound radioactivity is the signal in a displacement assay; it reports binding, not function.)
For data set [11], the target named is Cytochrome P450 3A4 (Homo sapiens, UniProt P08684). As to the kind of experiment: Inhibition of CYP 3A4. In kind it is ADME.
Data set [12] deals with Rattus norvegicus. The experiment in a line: Antiamnesic activity in rat assessed as decrease in ratio of investigation duration of familiar juvenile rat at 1 mg/kg, ip administered 120 mins prior to test by social recognition test. Particulars: route intraperitoneal. The arrangement: scale not given: the % may be the effect or the level left. In kind it is functional.
The target of data set [13] is Muscarinic acetylcholine receptor M4 (Homo sapiens, UniProt P08173). As to the kind of experiment: Inhibition of M4 receptor.
The nature of data set [14]: Half life in dog liver microsomes. The format is ADME, Canis lupus familiaris, Microsome.
The target in data set [15] is Cytochrome P450 2C19 (Homo sapiens, UniProt P33261). The experiment in a line: Inhibition of CYP 2C19. The format is ADME.
Data set [16] deals with Sodium-dependent dopamine transporter (Homo sapiens, UniProt Q01959). As to the kind of experiment: Inhibition of DA transporter.
Data set [17] can be described thus: Apparent permeability from apical to basal side of MDCK2-MDR1. The format is ADME, cell-based, Canis lupus familiaris, MDCK-II. The note with it: dog, MDCK-MDR1.
The subject of data set [18] is Rattus norvegicus. As to the kind of experiment: Antiamnesic activity in rat assessed as decrease in ratio of investigation duration of familiar juvenile rat at 3 mg/kg, ip administered 120 mins prior to test by social recognition test. The format is functional. Also on record: scale not given: the % may be the effect or the level left. Particulars: route intraperitoneal.

Data set [19] relates to Rattus norvegicus. The experiment in a line: Antiamnesic activity in rat assessed as decrease in ratio of investigation duration of familiar juvenile rat at 0.3 mg/kg, ip administered 120 mins prior to test by social recognition test. Particulars: route intraperitoneal. The format is functional. Also on record: scale not given: the % may be the effect or the level left.

Data set [20] in a line: Inhibition of calcium channel-L type.
The target of data set [21] is 5-hydroxytryptamine receptor 2A (Homo sapiens, UniProt P28223). As to the kind of experiment: Inhibition of human 5HT2A.
Data set [22] in a line: Half life in human liver microsomes. The format is ADME, Microsome. Background: Microsomes from liver hold many membrane-bound enzymes, among them those of drug oxidation.
Data set [23] concerns the target T1, 5-hydroxytryptamine receptor 6. As to the kind of experiment: Antagonist activity at human 5HT6 receptor expressed in human astrocytoma cells assessed as inhibition of cAMP production. The format is functional, cell-based. For orientation: cAMP levels reflect the balance of adenylyl cyclase and phosphodiesterase activity.
In data set [24] the target is Cytochrome P450 2C9 (Homo sapiens, UniProt P11712). The experiment in a line: Inhibition of CYP 2C9. The format is ADME.
Data set [25] deals with Cytochrome P450 1A2 (Homo sapiens, UniProt P05177). The experiment in a line: Inhibition of CYP 1A2. In kind it is ADME.
The test system of data set [26] is Rattus norvegicus. As to the kind of experiment: Half life in rat at 1 mg/kg, iv. In kind it is ADME, organism-based. Also on record: dose 1 mg/kg, route intravenous. Particulars: in vivo.
Data set [27] is described as follows: Plasma protein binding in rat. In kind it is ADME, cell-free. Particulars: read-out: PPB (converted).
Data set [28] in a line: Plasma protein binding in human. Particulars: read-out: PPB (converted). In kind it is ADME, cell-free.
The target in data set [29] is Muscarinic acetylcholine receptor M2 (Homo sapiens, UniProt P08172). As to the kind of experiment: Inhibition of M2 receptor.
Data set [30] has as its target Voltage-gated inwardly rectifying potassium channel KCNH2 (Homo sapiens, UniProt Q12809). The experiment in a line: Inhibition of human ERG by patch clamp assay.
Data set [31] in a line: Half life in rat liver microsomes. In kind it is ADME, Microsome.
The nature of data set [32]: Aqueous solubility at pH 2. The format is physicochemical. The note with it: buffer.
Data set [33] has as its target 5-hydroxytryptamine receptor 6 (Rattus norvegicus, UniProt P31388). As to the kind of experiment: Displacement of [3H]LSD from rat recombinant 5HT6 receptor.
The nature of data set [34]: Half life in mouse liver microsomes. The format is ADME, Microsome.
Data set [35] can be described thus: Oral bioavailability in rat at 5 mg/kg. The format is ADME, organism-based. Particulars: in vivo.
Data set [36] relates to Rattus norvegicus. As to the kind of experiment: Ratio of drug uptake in brain to plasma in rat at 5 mg/kg, po.

Results on two molecules are retold here after ChEMBL document CHEMBL1949541, “Discovery of 7-arylsulfonyl-1,2,3,4, 4a,9a-hexahydro-benzo[4,5]furo[2,3-c]pyridines: identification of a potent and selective 5-HT₆ receptor antagonist showing activity in rat social recognition test” (Bioorg Med Chem Lett, 2012).

The term Ki denotes a measure of affinity in units of concentration, obtained from inhibition or displacement. One may read the IC50 as the concentration needed to halve the response being measured. The solubility is the dissolved amount per volume that the medium holds. For orientation: bioavailability means the share of a dose that reaches the circulation, judged against a reference dose that is usually intravenous. A word on the Vd: it is the apparent volume that relates the amount in the body to the concentration in plasma or blood. As usually defined, the half-life is how long it takes for the measured level to halve. For orientation: Papp A→B means the apparent permeability from the apical to the basolateral side of a cell layer.

Molecules are shown by their SMILES.

T1 sequence (P50406 whole entry): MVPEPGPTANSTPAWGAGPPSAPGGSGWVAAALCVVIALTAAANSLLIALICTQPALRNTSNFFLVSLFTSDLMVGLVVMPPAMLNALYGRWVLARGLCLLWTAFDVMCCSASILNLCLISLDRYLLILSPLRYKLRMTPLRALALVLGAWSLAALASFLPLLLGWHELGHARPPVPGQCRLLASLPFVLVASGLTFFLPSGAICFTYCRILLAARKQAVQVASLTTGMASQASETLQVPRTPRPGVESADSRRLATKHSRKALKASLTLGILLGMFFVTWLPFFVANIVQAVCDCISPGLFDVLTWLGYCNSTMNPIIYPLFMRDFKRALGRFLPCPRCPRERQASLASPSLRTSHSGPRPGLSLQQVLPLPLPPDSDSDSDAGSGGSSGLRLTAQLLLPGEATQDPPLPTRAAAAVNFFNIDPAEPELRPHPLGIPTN
5-hydroxytryptamine receptor 6 (Rattus norvegicus, UniProt P31388), sequence (P31388 whole entry): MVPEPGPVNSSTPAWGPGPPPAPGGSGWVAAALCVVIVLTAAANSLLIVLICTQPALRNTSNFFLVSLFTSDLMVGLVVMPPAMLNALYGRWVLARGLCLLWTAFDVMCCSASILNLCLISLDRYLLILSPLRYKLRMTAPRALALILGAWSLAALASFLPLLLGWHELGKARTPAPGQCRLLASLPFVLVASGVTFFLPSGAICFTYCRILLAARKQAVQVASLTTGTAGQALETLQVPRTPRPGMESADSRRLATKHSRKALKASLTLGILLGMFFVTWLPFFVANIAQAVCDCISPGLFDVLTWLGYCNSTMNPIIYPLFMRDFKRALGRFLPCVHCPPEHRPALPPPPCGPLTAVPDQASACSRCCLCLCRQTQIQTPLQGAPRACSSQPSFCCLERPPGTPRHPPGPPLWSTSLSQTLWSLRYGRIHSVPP
Cytochrome P450 2C19, sequence (P33261 whole entry): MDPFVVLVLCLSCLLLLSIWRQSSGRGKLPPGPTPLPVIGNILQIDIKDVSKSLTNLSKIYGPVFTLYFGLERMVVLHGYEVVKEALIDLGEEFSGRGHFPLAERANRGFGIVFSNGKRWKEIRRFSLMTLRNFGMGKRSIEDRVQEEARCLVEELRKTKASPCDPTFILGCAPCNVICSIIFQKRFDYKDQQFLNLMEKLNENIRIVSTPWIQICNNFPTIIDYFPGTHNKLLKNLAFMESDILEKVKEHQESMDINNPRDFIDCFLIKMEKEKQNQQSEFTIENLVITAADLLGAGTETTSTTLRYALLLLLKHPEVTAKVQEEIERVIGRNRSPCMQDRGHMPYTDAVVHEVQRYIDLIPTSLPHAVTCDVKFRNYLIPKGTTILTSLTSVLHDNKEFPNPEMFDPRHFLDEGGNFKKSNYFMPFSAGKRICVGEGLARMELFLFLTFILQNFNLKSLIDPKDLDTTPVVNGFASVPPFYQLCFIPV
Muscarinic acetylcholine receptor M2, sequence (P08172 whole entry): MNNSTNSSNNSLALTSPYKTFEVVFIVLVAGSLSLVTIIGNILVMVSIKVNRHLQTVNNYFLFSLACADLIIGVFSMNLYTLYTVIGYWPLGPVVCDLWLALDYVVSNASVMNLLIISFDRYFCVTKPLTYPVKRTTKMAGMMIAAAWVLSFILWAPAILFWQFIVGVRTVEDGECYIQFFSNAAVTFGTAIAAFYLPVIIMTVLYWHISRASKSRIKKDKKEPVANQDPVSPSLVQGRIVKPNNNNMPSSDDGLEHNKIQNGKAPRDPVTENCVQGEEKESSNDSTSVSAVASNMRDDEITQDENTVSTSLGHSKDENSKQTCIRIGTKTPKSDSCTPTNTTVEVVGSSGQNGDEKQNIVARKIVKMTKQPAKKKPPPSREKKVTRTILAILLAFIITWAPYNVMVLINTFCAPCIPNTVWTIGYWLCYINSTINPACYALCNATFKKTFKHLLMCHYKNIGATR
Sodium-dependent noradrenaline transporter, sequence (P23975 whole entry): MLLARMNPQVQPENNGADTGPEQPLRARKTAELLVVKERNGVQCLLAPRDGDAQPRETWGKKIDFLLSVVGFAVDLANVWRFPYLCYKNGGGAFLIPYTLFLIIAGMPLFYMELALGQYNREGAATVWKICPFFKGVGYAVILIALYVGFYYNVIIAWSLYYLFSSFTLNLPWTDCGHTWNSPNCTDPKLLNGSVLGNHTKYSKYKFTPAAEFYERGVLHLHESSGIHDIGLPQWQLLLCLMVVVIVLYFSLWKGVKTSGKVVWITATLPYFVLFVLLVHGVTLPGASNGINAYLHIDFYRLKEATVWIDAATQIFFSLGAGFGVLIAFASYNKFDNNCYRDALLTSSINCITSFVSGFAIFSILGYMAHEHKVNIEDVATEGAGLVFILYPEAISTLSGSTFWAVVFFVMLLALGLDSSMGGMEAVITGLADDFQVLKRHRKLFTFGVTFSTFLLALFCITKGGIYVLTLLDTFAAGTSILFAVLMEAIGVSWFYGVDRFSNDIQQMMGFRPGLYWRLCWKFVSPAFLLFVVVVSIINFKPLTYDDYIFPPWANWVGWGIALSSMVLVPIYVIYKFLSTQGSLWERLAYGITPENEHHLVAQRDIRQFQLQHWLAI
Voltage-gated inwardly rectifying potassium channel KCNH2, sequence (Q12809 whole entry): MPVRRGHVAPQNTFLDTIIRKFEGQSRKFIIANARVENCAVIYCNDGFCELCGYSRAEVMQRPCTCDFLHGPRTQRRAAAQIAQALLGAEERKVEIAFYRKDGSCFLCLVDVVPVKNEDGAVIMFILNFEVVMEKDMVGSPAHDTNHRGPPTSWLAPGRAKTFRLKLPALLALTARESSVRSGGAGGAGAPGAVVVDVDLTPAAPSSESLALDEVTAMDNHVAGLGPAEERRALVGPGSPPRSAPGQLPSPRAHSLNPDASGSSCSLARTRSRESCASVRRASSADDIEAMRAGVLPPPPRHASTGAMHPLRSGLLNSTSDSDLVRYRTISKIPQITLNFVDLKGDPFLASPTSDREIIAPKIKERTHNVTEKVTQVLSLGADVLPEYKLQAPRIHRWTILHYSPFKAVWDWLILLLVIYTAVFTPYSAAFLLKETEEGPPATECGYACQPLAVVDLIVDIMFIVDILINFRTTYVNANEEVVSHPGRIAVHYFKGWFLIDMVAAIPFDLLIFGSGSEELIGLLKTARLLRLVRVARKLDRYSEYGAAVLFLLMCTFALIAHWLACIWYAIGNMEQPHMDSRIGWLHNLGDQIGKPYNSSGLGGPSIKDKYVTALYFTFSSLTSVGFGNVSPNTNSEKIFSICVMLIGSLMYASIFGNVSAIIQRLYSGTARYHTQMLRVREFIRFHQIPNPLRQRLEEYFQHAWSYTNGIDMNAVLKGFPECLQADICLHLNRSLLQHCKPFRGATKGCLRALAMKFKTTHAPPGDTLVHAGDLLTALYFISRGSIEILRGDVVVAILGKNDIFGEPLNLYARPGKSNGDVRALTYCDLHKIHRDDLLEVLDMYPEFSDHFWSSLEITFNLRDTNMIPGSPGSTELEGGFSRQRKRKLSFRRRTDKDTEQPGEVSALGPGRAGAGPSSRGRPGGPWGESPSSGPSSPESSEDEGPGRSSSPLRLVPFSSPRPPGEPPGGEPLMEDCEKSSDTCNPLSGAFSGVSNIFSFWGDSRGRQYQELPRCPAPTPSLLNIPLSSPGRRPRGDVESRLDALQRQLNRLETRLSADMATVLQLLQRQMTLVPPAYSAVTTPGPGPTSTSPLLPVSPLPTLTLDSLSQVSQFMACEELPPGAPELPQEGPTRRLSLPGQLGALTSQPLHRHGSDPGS
5-hydroxytryptamine receptor 2B, sequence (P41595 whole entry): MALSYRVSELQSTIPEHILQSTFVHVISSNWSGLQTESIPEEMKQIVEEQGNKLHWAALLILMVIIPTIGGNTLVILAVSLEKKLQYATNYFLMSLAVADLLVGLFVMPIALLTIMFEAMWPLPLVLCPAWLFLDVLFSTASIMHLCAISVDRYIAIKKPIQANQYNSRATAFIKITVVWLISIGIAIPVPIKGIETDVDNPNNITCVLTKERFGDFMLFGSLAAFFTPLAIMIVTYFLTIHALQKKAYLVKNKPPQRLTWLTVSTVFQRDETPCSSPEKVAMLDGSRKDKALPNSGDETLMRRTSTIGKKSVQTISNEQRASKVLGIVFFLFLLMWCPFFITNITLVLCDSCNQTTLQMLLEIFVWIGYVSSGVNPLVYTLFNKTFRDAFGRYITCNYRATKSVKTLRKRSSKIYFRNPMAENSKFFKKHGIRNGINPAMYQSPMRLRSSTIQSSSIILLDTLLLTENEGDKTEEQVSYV
Cytochrome P450 3A4, sequence (P08684 whole entry): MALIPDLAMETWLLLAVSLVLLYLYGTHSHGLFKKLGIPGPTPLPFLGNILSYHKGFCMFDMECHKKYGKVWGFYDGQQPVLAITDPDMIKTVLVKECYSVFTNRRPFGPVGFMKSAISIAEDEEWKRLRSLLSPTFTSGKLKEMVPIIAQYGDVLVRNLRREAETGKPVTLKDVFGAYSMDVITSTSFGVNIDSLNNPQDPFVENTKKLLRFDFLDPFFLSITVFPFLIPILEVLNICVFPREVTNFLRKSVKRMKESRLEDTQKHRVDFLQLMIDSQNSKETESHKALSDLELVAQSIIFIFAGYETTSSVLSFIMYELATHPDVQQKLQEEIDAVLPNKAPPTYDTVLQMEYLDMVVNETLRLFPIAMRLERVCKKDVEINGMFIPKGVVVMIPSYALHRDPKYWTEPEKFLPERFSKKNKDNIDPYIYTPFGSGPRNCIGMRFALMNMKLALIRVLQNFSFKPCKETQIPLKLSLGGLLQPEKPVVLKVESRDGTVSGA

With `COc1cc(OC(C)C)cc(S(=O)(=O)c2ccc3c(c2)O[C@H]2CNCC[C@@H]32)c1.Cl` (single isomer, unassigned; enantiomer 1), the Ki stood at 6.2 µM in [1]; 19 µM in data set [3]; 0.004 µM in data set [10]; 3.7 µM in data set [21]; 0.027 µM in data set [33]. Moreover, the IC50 in [2] is 2.2 µM; in data set [4] it was 4.4 µM; in data set [9], above 30 µM; in data set [11], above 5.9 µM; in data set [13], 4.8 µM; in data set [15] it was above 22.9 µM. In addition, the half-maximal inhibitory concentration (IC50) is 6.3 µM in data set [16]; 3.9 µM in [20]; 0.067 µM in data set [23]; above 30 µM in data set [24]; above 30 µM in [25]; 7.9 µM in data set [29]. This molecule also registered a concentration for half-maximal inhibition (IC50) in data set [30] of 3.3 µM. The Kp in [5] was determined as 2.76. In addition, the solubility in data set [6] and in [32] was above 130 µg/mL each time. Further, the bioavailability in data set [7] came to 39%. For the same molecule, the Vd in data set [8] worked out at 4.3 L/kg. Also, the Activity in [12] amounted to 21%; in [18], 35%; in data set [19], 22%. Further, the half-life in data set [14], in data set [22], in data set [31] and in data set [34] was above 40 min each time. The apparent permeability from apical to basolateral (Papp A→B) in data set [17] worked out at 2.88 ×10⁻⁶ cm/s. The t1/2 in [26] was determined as 150 min. Also, the fraction unbound is 0.027 in [27] and 0.046 in data set [28].

With `COc1cc(OC(C)C)cc(S(=O)(=O)c2ccc3c(c2)O[C@H]2CNCC[C@@H]32)c1.Cl` (single isomer, unassigned; enantiomer 2), the bioavailability in data set [35] is 11%. The molecule also displayed a Vd in data set [8] of 1 L/kg. The inhibition constant (Ki) in data set [10] worked out at 0.012 µM; in data set [33] it was 0.055 µM. The BPR in [36] is 2.29. Further, in data set [23], the IC50 is 0.045 µM. Besides, the t1/2 in [26] was found to be 24 min.
